Reference: patent US10577362B2, “Substituted 2, 4-diamino-quinoline derivatives for use in the treatment of proliferative diseases” (GENOSCIENCE PHARMA, priority 2016, dated 2020)
Structures can show the parent of a compound that is named as a salt. Where two headings read alike, the source gives them in different places.

Legend:
Assay type in all cases: cell-based, human
[1] = test system: 786-O (renal adenocarcinoma) cell line; assay: CellTiter-Glo luminescent cell viability assay, 786-O; settings: for EC50: 786-O cell line, 72 h incubation, CellTiter-Glo, read-out: EC50, growth inhibition of 786-O; for viability at 4 µM / viability at 10 µM: 786-O, 72 h; for viability at 4 µM: compound at 4 μM; for viability at 10 µM: compound at 10 μM
Method: (§1) All cell lines were maintained in medium containing 1% penicillin-streptomycin (Dutscher, P06-07100) and 10% Fetal Bovine Serum (Hyclone Dutscher, RZK35922) cultured at 37° C. with 5% CO2. HepG2 (hepatocellular carcinoma), cell line was cultured in Dulbecco's modified Eagle's medium low glucose (Gibco, 21885025), Huh7 (hepatocellular carcinoma), HCT-116 (colorectal carcinoma), PANC-1 (prancreatic carcinoma) and A375 (malignant melanoma) cell lines were cultured in Dulbecco's modified Eagle's medium (Dutscher, L0103). MOLM-14 (acute myeloid leukemia) cell line was maintained in MEM alpha medium (Gibco, 22561-021). 786-0 (renal adenocarcinoma) cell lines were maintained in RPMI 1640 medium (Dutscher, L0498).
(§2) Cell viability was measured using the CellTiter-Glo® luminescent cell viability assay as described by the manufacturer (Promega, Ref G7571) using an Infinite F200Pro luminometer (Tecan). Briefly, for adherent cells, cells were plated onto 96-well plates (white with clear bottom) in 90 μL of media per well and were allowed to grow overnight before the assay. For cells growing in suspension, cells were plated onto 96-well plates 1 h before the assay.
(§3) Compounds were resuspended in H2O or DMSO and added at different concentrations to each well, and cell cultures were incubated for 72 h. Each diluent (H2O or DMSO) were used as a control, and all compounds were tested in a constant percentage of H2O or DMSO. On the day of the reading, plates are equilibrated 30 min at room temperature before the addition of 100 μL of CellTiter-Glo® and luminescence was measured using an Infinite F200Pro (Tecan). % cell viability were expressed as a percentage of the signal obtained for cell cultures treated with diluent. EC50 values were determined as the dose of compound required to reduce luminescent values to 50% of the signal obtained for cell cultures treated with diluent. The experimental data were analyzed using a computer program, Graphpad Prism v5 (GraphPad Software, Inc. La Jolla, Calif.). All points were at least done in duplicate.

[2] = test system: A375 (malignant melanoma) cell line; assay: CellTiter-Glo luminescent cell viability assay, A375; settings: for EC50: A375 cell line, 72 h incubation, CellTiter-Glo, read-out: EC50, growth inhibition of A375; for viability at 4 µM: A375, compound at 4 μM; for viability at 4 µM / viability at 10 µM: 72 h; for viability at 10 µM: A375, compound at 10 μM
Method: as §1, §2, §3

[3] = test system: Huh7 (hepatocellular carcinoma) cell line; assay: CellTiter-Glo luminescent cell viability assay, Huh7; settings: for EC50: Huh7 cell line, 72 h incubation, CellTiter-Glo, read-out: EC50, growth inhibition of Huh7; for viability at 4 µM: Huh7, compound at 4 μM; for viability at 4 µM / viability at 10 µM: 72 h; for viability at 10 µM: Huh7, compound at 10 μM
Method: as §1, §2, §3

[4] = test system: HCT-116 (colorectal carcinoma) cell line; assay: CellTiter-Glo luminescent cell viability assay, HCT-116; settings: for EC50: HCT-116 cell line, 72 h incubation, CellTiter-Glo, read-out: EC50, growth inhibition of HCT-116; for viability at 4 µM: HCT-116, compound at 4 μM; for viability at 4 µM / viability at 10 µM: 72 h; for viability at 10 µM: HCT-116, compound at 10 μM
Method: as §1, §2, §3

[5] = test system: MOLM-14 (acute myeloid leukemia) cell line; assay: CellTiter-Glo luminescent cell viability assay, MOLM-14; settings: for EC50: MOLM-14 cell line, 72 h incubation, CellTiter-Glo, read-out: EC50, growth inhibition of MOLM-14; for viability at 4 µM: MOLM-14, compound at 4 μM; for viability at 4 µM / viability at 10 µM: 72 h; for viability at 10 µM: MOLM-14, compound at 10 μM
Method: as §1, §2, §3

[6] = test system: HepG2 (hepatocellular carcinoma) cell line; assay: CellTiter-Glo luminescent cell viability assay, HepG2; settings: for EC50: HepG2 cell line, 72 h incubation, CellTiter-Glo, read-out: EC50, growth inhibition of HepG2; for viability at 4 µM / viability at 10 µM: HepG2, HepG, 72 h; for viability at 4 µM: compound at 4 μM; for viability at 10 µM: compound at 10 μM
Method: as §1, §2, §3

| SMILES | EC50 ([1]; Homo sapiens, 786-0) | EC50 ([2]; Homo sapiens, A-375) | EC50 ([3]; Homo sapiens, Huh-7) | EC50 ([4]; Homo sapiens) | EC50 ([5]; Homo sapiens) | EC50 ([6]; Homo sapiens) | further results |
| --- | --- | --- | --- | --- | --- | --- | --- |
| Cc1c(F)ccc2c(N3CCC(NC(C)(C)C)CC3)cc(NCc3ccc(Cl)cc3)nc12 [Compound 572, 2-(4-chlorobenzylamino)-4-[4-(tert-butylamino)piperidin-1-yl]-7-fluoro-8-methylquinoline] | 0.5 to 5 µM | 0.5 to 5 µM | 0.5 to 5 µM | 0.5 to 5 µM | 0.5 to 5 µM | 0.5 to 5 µM | – |
| CNC(=O)C1CCN(c2cc(NCc3ccc(Cl)cc3)nc3ccccc23)CC1 [Compound 1598, 2-(4-chlorobenzylamino)-4-[4-(methylcarbamoyl)piperidin-1-yl]quinoline hydrochloride] | 5 to 10 µM | 5 to 10 µM | 0.5 to 5 µM | 0.5 to 5 µM | 5 to 10 µM | 0.5 to 5 µM | – |
| CC(C)(C)NC(=O)C1CCN(c2cc(NCc3ccc(Cl)cc3)nc3ccccc23)CC1 [Compound 1604, 2-(4-chlorobenzylamino)-4-[4-(tert-butylaminocarbonyl)-piperidin-1-yl]-quinoline hydrochloride] | 5 to 10 µM | 5 to 10 µM | 0.5 to 5 µM | 5 to 10 µM | 5 to 10 µM | 0.5 to 5 µM | – |
| CN1CCN(C(=O)C2CCN(c3cc(NCc4ccc(Cl)cc4)nc4ccccc34)CC2)CC1 [Compound 1656, 2-(4-chlorobenzylamino)-4-[4-(4-methylpiperazine-1-carbonyl)-piperidin-1-yl]-quinoline hydrochloride] | 0.5 to 5 µM | 0.5 to 5 µM | 0.5 to 5 µM | 0.5 to 5 µM | 0.5 to 5 µM | 0.5 to 5 µM | – |
| OC[C@@H]1CCCN1c1cc(NCc2ccc(Cl)cc2)nc2ccccc12 [Compound 2308, (2S) 2-(4-chlorobenzylamino)-4-[2-(hydroxymethyl)pyrrolidin-1-yl]quinoline, hydrochloride] | – | – | – | – | – | – | EC50 [1]: 5 to 10 µM; EC50 [2]: 0.5 to 5 µM; EC50 [3]: 0.5 to 5 µM; EC50 [4]: 5 to 10 µM; EC50 [5]: 0.5 to 5 µM; EC50 [6]: 0.5 to 5 µM |
| COC[C@@H]1CCCN1c1cc(NCc2ccc(Cl)cc2)nc2ccccc12 [Compound 2310, (2S) 2-(4-chlorobenzylamino)-4-[2-(methoxymethyl)pyrrolidin-1-yl]quinoline, hydrochloride] | 5 to 10 µM | 0.5 to 5 µM | 0.5 to 5 µM | 0.5 to 5 µM | 0.5 to 5 µM | 0.5 to 5 µM | – |
| OC[C@H]1CCCN1c1cc(NCc2ccc(Cl)cc2)nc2ccccc12 [Compound 2380, (2R)-2-(4-chlorobenzylamino)-4-[2-(hydroxymethyl)-pyrrolidin-1-yl]-quinoline hydrochloride] | 5 to 10 µM | 0.5 to 5 µM | 0.5 to 5 µM | 0.5 to 5 µM | 0.5 to 5 µM | 0.5 to 5 µM | – |
| CC(C)OC1CCN(c2cc(NCc3ccc(Cl)cc3)nc3ccccc23)CC1 [Compound 2918, 2-(4-chlorobenzylamino)-4-[4-(iso-propoxy)-piperidin-1-yl]-quinoline hydrochloride] | 5 to 10 µM | 5 to 10 µM | 5 to 10 µM | 0.5 to 5 µM | 0.5 to 5 µM | 0.5 to 5 µM | – |
| Clc1ccc(CNc2cc(N3CCC(Oc4ccccc4)CC3)c3ccccc3n2)cc1 [Compound 2940, 2-(4-chlorobenzylamino)-4-(4-phenoxypiperidin-1-yl)-quinoline hydrochloride] | 0.5 to 5 µM | 5 to 10 µM | 5 to 10 µM | 0.5 to 5 µM | 0.5 to 5 µM | 0.5 to 5 µM | – |
| N#Cc1c(NCc2ccc(Cl)cc2)nc2ccccc2c1N1CCC(Oc2ccc(F)cc2)CC1 [Compound 2942CN, 2-(4-chlorobenzylamino)-3-cyano-4-[4-(4-fluorophenoxy)piperidin-1-yl]quinoline] | – | – | – | – | – | – | viability at 4 µM ([1]; Homo sapiens, 786-0): 87.7%; viability at 10 µM ([1]; Homo sapiens, 786-0): 81.3%; viability at 4 µM ([2]; Homo sapiens, A-375): 101%; viability at 10 µM ([2]; Homo sapiens, A-375): 94.9%; viability at 4 µM ([3]; Homo sapiens, Huh-7): 94.3%; viability at 10 µM ([3]; Homo sapiens, Huh-7): 87.9%; viability at 4 µM ([4]; Homo sapiens): 91%; viability at 10 µM ([4]; Homo sapiens): 75.1%; viability at 4 µM ([5]; Homo sapiens): 98.2%; viability at 10 µM ([5]; Homo sapiens): 88.1%; viability at 4 µM ([6]; Homo sapiens): 99.1%; viability at 10 µM ([6]; Homo sapiens): 75.3% |
| Cc1cccc(OC2CCN(c3cc(NCc4ccc(Cl)cc4)nc4ccccc34)CC2)c1 [Compound 2946, 2-(4-chlorobenzylamino)-4-[4-(m-tolyloxy)piperidin-1-yl]quinoline hydrochloride] | 5 to 10 µM | 0.5 to 5 µM | 5 to 10 µM | 5 to 10 µM | 5 to 10 µM | 5 to 10 µM | – |
| Clc1ccc(CNc2cc(N3CCC(Oc4ccncc4)CC3)c3ccccc3n2)cc1 [Compound 2950, 2-(4-chlorobenzylamino)-4-[4-(pyridin-4-yloxy)piperidin-1-yl]quinoline hydrochloride] | 0.5 to 5 µM | 0.5 to 5 µM | 0.5 to 5 µM | 0.5 to 5 µM | 0.5 to 5 µM | 0.5 to 5 µM | – |
| Clc1ccc(CNc2cc(N3CCC(Oc4cnccn4)CC3)c3ccccc3n2)cc1 [Compound 2958, 2-(4-chlorobenzylamino)-4-[4-(pyrazin-2-yloxy)piperidin-1-yl]quinoline hydrochloride] | 5 to 10 µM | 5 to 10 µM | 0.5 to 5 µM | 5 to 10 µM | 0.5 to 5 µM | 0.5 to 5 µM | – |
| Cc1nccnc1OC1CCN(c2c(C#N)c(NCc3ccc(Cl)cc3)nc3ccccc23)CC1 [Compound 2970CN, 2-(4-chlorobenzylamino)-3-cyano-4-{4-[(3-methylpyrazin-2-yl)oxy]piperidin-1-yl}quinoline] | – | – | – | – | – | – | viability at 4 µM ([1]; Homo sapiens, 786-0): 89.4%; viability at 10 µM ([1]; Homo sapiens, 786-0): 79.8%; viability at 4 µM ([2]; Homo sapiens, A-375): 91.9%; viability at 10 µM ([2]; Homo sapiens, A-375): 80.8%; viability at 4 µM ([3]; Homo sapiens, Huh-7): 63.7%; viability at 10 µM ([3]; Homo sapiens, Huh-7): 53.4%; viability at 4 µM ([4]; Homo sapiens): 70.5%; viability at 10 µM ([4]; Homo sapiens): 47%; viability at 4 µM ([5]; Homo sapiens): 92%; viability at 10 µM ([5]; Homo sapiens): 61.2%; viability at 4 µM ([6]; Homo sapiens): 87.8%; viability at 10 µM ([6]; Homo sapiens): 63.3% |
| Cc1cc(OC2CCN(c3c(C#N)c(NCc4ccc(Cl)cc4)nc4ccccc34)CC2)no1 [Compound 2978CN, 2-(4-chlorobenzylamino)-3-cyano-4-{4-[(5-methylisoxazol-3-yl)oxy]piperidin-1-yl}quinoline] | – | – | – | – | – | – | viability at 4 µM ([1]; Homo sapiens, 786-0): 96.9%; viability at 10 µM ([1]; Homo sapiens, 786-0): 89.3%; viability at 4 µM ([2]; Homo sapiens, A-375): 93.1%; viability at 10 µM ([2]; Homo sapiens, A-375): 86.8%; viability at 4 µM ([3]; Homo sapiens, Huh-7): 87%; viability at 10 µM ([3]; Homo sapiens, Huh-7): 74.2%; viability at 4 µM ([4]; Homo sapiens): 88.2%; viability at 10 µM ([4]; Homo sapiens): 50.1%; viability at 4 µM ([5]; Homo sapiens): 115%; viability at 10 µM ([5]; Homo sapiens): 77.5%; viability at 4 µM ([6]; Homo sapiens): 94.5%; viability at 10 µM ([6]; Homo sapiens): 78.1% |
| O[C@@H]1CCN(c2cc(NCc3ccc(Cl)cc3)nc3ccccc23)C1 [Compound 2988, (3R) 2-(4-chlorobenzylamino)-4-(3-hydroxypyrrolidin-1-yl)quinoline hydrochloride] | 0.5 to 5 µM | 0.5 to 5 µM | 0.5 to 5 µM | 5 to 10 µM | 0.5 to 5 µM | 0.5 to 5 µM | – |
